Measurements from patent publication US10071063B2, “Specific mTOR inhibitors in the treatment of X-linked adrenoleukodystrophy” (FUNDACIÓN DE LA COMUNIDAD VALENCIANA CENTRO DE …, priority 2014, dated 2018).
Where two headings read alike, the source gives them in different places.

Key:
[1] = tested on: control and X-ALD patient fibroblasts; experiment: Pulse-chase degradation of long-lived proteins in fibroblasts treated with VLCFA; type: cell-based, human; settings: C26:0 50 μM 24 h, high proteolysis medium; for inhibition at 50 µM: Homo sapiens, Fibroblast, control fibroblasts
Experimental: (§1) Skin biopsies to prepare fibroblasts were collected according to the institutional guidelines for sampling, including informed consent from the persons involved or their representatives. Primary human fibroblasts were cultured in DMEM (containing 10% fetal bovine serum, 100 U/ml penicillin and 100 μg streptomycin) at 37° C. in humidified 5% CO2/95% air. Unless otherwise stated, experiments were carried out with cells at 80% confluence. For starvation conditions (high proteolysis medium, H), cells were switched, after washing, from full growth medium (see above, low proteolysis medium, L) to Krebs-Henseleit medium (118.4 mM NaCl, 4.75 mM KCl, 1.19 mM KH2PO4, 2.54 mM MgSO4, 2.44 mM CaCl2.2H2O, 28.6 mM NaHCO3, 10 mM glucose) containing 10 mM Hepes, pH 7.4 (high proteolysis medium, H) and incubated for 4 h or less at 37° C.
For pulse-chase experiments, human control and X-ALD patient fibroblasts were incubated for 48 h in fresh full medium with 1 μCi/ml [3H]valine (Hartmann Analytic Gmbh), followed by a 24 h chase in fresh full medium containing 10 mM L-valine to degrade short-lived proteins. Then, all cultures were incubated for the indicated times in Krebs-Henseleit medium with 10 mM Hepes, pH 7.4, containing 10 mM valine and the indicated additions. Protein degradation, which was analysed 1 h later to ensure maximal effects of the various additions and for only 3 h to avoid possible secondary effects, was calculated at two intervals of 1.5 h by measuring the net release of trichloroacetic acid-soluble radioactivity from the labelled cells into the culture medium and expressed as percentage of protein degraded. The contribution of lysosomal degradation to total protein degradation was calculated using 20 mM NH4Cl (Sigma-Aldrich) plus 100 μM leupeptin (Peptide Institute), as previously described (Fuertes G, et al, 2003, Biochem J 375, 75-86).
In X-ALD, VLCFA accumulate. The effect of the addition of an excess of hexacosanoic acid to fibroblasts isolated from controls and X-ALD patients was tested. First, the degradation of intracellular proteins was analyzed to determine if it was any alteration in control and X-ALD fibroblasts upon addition of an excess of VLCFA, by analyzing in pulse-chase experiments the degradation of long-lived proteins under starvation. Total protein degradation and also, separately, lysosomal protein degradation were estimated by procedures previously described (Fuertes G, et al, 2003, Biochem J 375, 75-86).

[2] = tested on: control and X-ALD fibroblasts; experiment: Immunoblot of LC3-II and p62 in fibroblasts treated or not with VLCFA; type: cell-based, human; settings: excess of VLCFA
Experimental: as §1
(§2) Tissues were removed from euthanized mice and flash-frozen on liquid nitrogen. Frozen tissues and human fibroblasts samples were homogenized in RIPA buffer (Cell Signaling Technology) using a motor-driven grinder (Sigma-Aldrich), and then sonicated for 2 min at 4° C. in an Ultrasonic processor UP50H (Hielscher-Ultrasound Technology). Samples were subjected to polyacrylamide (10% acrylamide) gel electrophoresis for 60 min at […]. Resolved proteins were transferred onto nitrocellulose membranes and proteins were detected with ECL Western blotting analysis system followed by exposure to CL-XPosure Film (Thermo Scientific). Autoradiographs were scanned and quantified using a GS800 Densitometer (Bio-Rad).
Then, the LC3-II and p62 levels in cell extracts from control and X-ALD fibroblasts treated or not with VLCFA were determined by immunoblot analysis.

[3] = cited from earlier work
[4] = tested on: Abcd1−/− mouse spinal cord; experiment: Western blot of autophagy markers LC3-II and p62 in spinal cord of treated Abcd1−/− mice; type: in vivo; settings: temsirolimus 20 mg/kg i.p. three times a week, 3 months with rest periods
From the text: (§3) All methods employed in this study were in accordance with the Guide for the Care and Use of Laboratory Animals published by the US National Institutes of Health (NIH publication No. 85-23, revised 1996) and the ethical committees of IDIBELL and the Generalitat de Catalunya. The generation and genotyping of Abcd1 null mice have been previously described. Mice used for experiments were on a pure C57BL/6J background. Abcd1 null and wild type mice were separated into control and treated groups. Temsirolimus (LC laboratories) was administered by intraperitoneal injections three times a week at a dose of 20 mg/kg for 3 months with alternate 3-weeks rest periods between each month of treatment. Control mice were given a placebo injection containing buffer only with the same frequency. Treadmill test was carried out exactly as previously described (López-Erauskin J, et al, 2011, Ann Neurol 70, 84-92). The latency to falling off the belt (time of shocks in seconds) and the number of received shocks were measured. […]
(§4) Tissues were removed from euthanized mice and flash-frozen on liquid nitrogen. […] Resolved proteins were transferred onto nitrocellulose membranes and proteins were detected with ECL Western blotting analysis system followed by exposure to CL-XPosure Film (Thermo Scientific). Autoradiographs were scanned and quantified using a GS800 Densitometer (Bio-Rad).

[5] = tested on: Abcd1−/−/Abcd2−/− mice; experiment: Immunohistochemistry of axonal degeneration markers in spinal cord of Abcd1−/−/Abcd2−/− mice; type: in vivo, mouse
From the text: (§5) All methods employed in this study were in accordance with the Guide for the Care and Use of Laboratory Animals published by the US National Institutes of Health (NIH publication No. 85-23, revised 1996) and the ethical committees of IDIBELL and the Generalitat de Catalunya. The generation and genotyping of Abcd1 null mice have been previously described. Mice used for experiments were on a pure C57BL/6J background. Abcd1 null and wild type mice were separated into control and treated groups. Temsirolimus (LC laboratories) was administered by intraperitoneal injections three times a week at a dose of 20 mg/kg for 3 months with alternate 3-weeks rest periods between each month of treatment. Control mice were given a placebo injection containing buffer only with the same frequency. Treadmill test was carried out exactly as previously described (López-Erauskin J, et al, 2011, Ann Neurol 70, 84-92). The latency to falling off the belt (time of shocks in seconds) and the number of received shocks were measured. Bar cross test was performed as previously described (López-Erauskin J, et al, 2011, Ann Neurol 70, 84-92). Placebo and drug treated mice within each litter were tested on the treadmill simultaneously and at the time of testing were not identified as to their treatment status.
Spinal cords were harvested from 20-month-old mice (wild type, Abcd1−/−/Abcd2−/− and Abcd1−/−/Abcd2−/− treated with temsirolimus), after perfusion with 4% paraformaldehyde and prepared and incubated for immunohistochemistry as described (López-Erauskin J, et al, 2011. Ann Neurol 70, 84-92).

[6] = tested on: Abcd1−/−/Abcd2−/− mice; experiment: Treadmill test; type: in vivo, mouse; settings: Abcd1−/−/Abcd2−/− mice at 20 months of age
[7] = tested on: Abcd1−/−/Abcd2−/− mice; experiment: Bar cross test; type: in vivo, mouse; settings: Abcd1−/−/Abcd2−/− mice at 20 months of age
[8] = tested on: Abcd1 null mice; experiment: Dose tests of temsirolimus in Abcd1 null mice (body response, weight); type: in vivo, mouse
From the text: as §5
10 month-old Abcd1 null mice were treated with temsirolimus, or vehicle (control), administered by intraperitoneal injection as described previously. Doses tests in order to check mice's body response was firstly performed. […] Thus, to prevent side effects other treatment conditions: intraperitoneal injections of temsirolimus for 3 months with alternate 3-weeks rest periods between each month of treatment, were tested.

[9] = tested on: Abcd1−/− mouse spinal cord; experiment: Oxidized proteins, ATP levels, proteasome activity and immunoproteasome subunits in spinal cord of temsirolimus-treated Abcd1−/− mice; type: in vivo; settings: temsirolimus 20 mg/kg i.p.
From the text: as §5
Total RNA was isolated from homogenized spinal cord using the RNeasy mini kit (Qiagen), according to the manufacturer's instructions. RNA samples with RNA Integrity Number (RIN) above 8 and 28S/18S ratio higher than 1 were used for the experiments. Then, first strand cDNA was synthesized for each RNA sample using Superscript II reverse transcriptase (Invitrogen) and random primers. The expression of the candidate proteasome genes was analysed by RQ-PCR using TaqMan® Gene Expression Assays (Applied Biosystems).
Relative quantitation was carried out using the ‘Delta-Delta Ct’ (ΔΔCt) method with tubby RNA as endogenous control. Transcript quantification was performed in duplicate for each sample.
as §2
ATP levels were measured as previously described (Galino J, et al 2011, Antioxid Redox Signal 15, 2095-2107). For proteasome activity assays, tissues were homogenized in an ice-cold buffer (50 mM Tris-HCl pH 7.5, 1 mM dithiothreitol, 0.25 M sucrose, 5 mM MgCl2, 0.5 mM EDTA with 2 mM ATP), using a teflon-on-glass homogenizer, and centrifuged at 12,000×g for 10 min. Chymotrypsin-like activity of proteasomes was determined as described (Launay N, et el, 2013 Brain 136, 891-904), using Suc-LLVY-AMC as substrate. […] The free AMC fluorescence was quantified with a fluorescence multiplate FLUOstar OPTIMA FL reader (BMG) with excitation and emission wavelengths at 380 and 460 nm, respectively. […] All reactions were carried out in duplicate and readings were calibrated using standard solutions of the fluorophores.

[10] = tested on: mTOR; experiment: p70S6K phosphorylation (mTOR activity) by Western blot in spinal cord of treated Abcd1−/− mice; type: in vivo, mouse; settings: temsirolimus 20 mg/kg i.p. three times a week, 3 months with rest periods
From the text: as §3, §4

[11] = spinal cord, 20-month-old Abcd1−/−/Abcd2−/− mice, to control levels
[12] = spinal cord, Abcd1−/−/Abcd2−/− mice, to control levels, data not shown
[13] = intraperitoneal injections for 3 months with alternate 3-weeks rest periods between each month
[14] = RT-PCR, Abcd1−/− mouse spinal cord

Structure (SMILES): CCCCCCCCCCCCCCCCCCCCCCCCCC(=O)O [VLCFA, Hexacosanoic acid]
- inhibition at 50 µM ([1]; read-out: inhibition of lysosomal degradation of long-lived proteins): ~40%
- inhibition at 50 µM ([1]; read-out: inhibition of total degradation of long-lived proteins): ~15%
- inhibition of lysosomal degradation of long-lived proteins ([1]; X-ALD fibroblasts): no significant inhibitions
- inhibition of total degradation of long-lived proteins ([1]; X-ALD fibroblasts): no significant inhibitions
- LC3-II levels ([2]; X-ALD fibroblasts): no significant differences
- p62 levels ([2]; X-ALD fibroblasts): no significant differences
- LC3-II levels ([2]; control fibroblasts): marked decrease
- p62 levels ([2]; control fibroblasts): increase

Structure (SMILES): CO[C@H]1C[C@@H]2CC[C@@H](C)[C@@](O)(O2)C(=O)C(=O)N2CCCC[C@H]2C(=O)O[C@H]([C@H](C)C[C@@H]2CC[C@@H](O)[C@H](OC)C2)CC(=O)[C@H](C)/C=C(\C)[C@@H](O)[C@@H](OC)C(=O)[C@H](C)C[C@H](C)/C=C/C=C/C=C/1C [rapamycin]
- water solubility [3]: poor

Structure (SMILES): CO[C@H]1C[C@@H]2CC[C@@H](C)[C@@](O)(O2)C(=O)C(=O)N2CCCC[C@H]2C(=O)O[C@H]([C@H](C)C[C@@H]2CC[C@@H](OC(=O)C(C)(CO)CO)[C@H](OC)C2)CC(=O)[C@H](C)/C=C(\C)[C@@H](O)[C@@H](OC)C(=O)[C@H](C)C[C@H](C)/C=C/C=C/C=C/1C [temsirolimus, (3S,6R,7E,9R,10R,12R, 14S,15E,17E,19E,21S,23S,26R,27R,34aS)-9,10,12,13,14,21,22,23,24,25,26,27,32,33,34,34a-Hexa deca hydro-9,27-dihydroxy-3-[(1R)-2-[1S,3R,4R)-4-hydroxy-3-methoxycyclohexyl]-10,21-dimethoxy-6,8,12,14,20,26-hexa meth 3H-pyrido [2,1-][1,4]oxa azaclo hentriacontine-1,5,11,28,29(4H,6H,31H)-pentone 4′-[2,2-bis (hydroxymethyl)propionate]]
- LC3-II levels [4]: up-
- p62 levels [4]: down regulated
- motor neurons health in spinal cord ([5]; XALD mice): improve
- accumulation of APP (axonal damage marker) [5, 11]: reduced
- accumulation of synaptophysin (axonal damage marker) [5, 11]: reduced
- DNA oxidation [5, 12]: reduced
- number of reactive astrocytes [5, 12]: reduced
- number of reactive microglia [5, 12]: reduced
- ratio between the time length of the shocks and the number of shocks [6]: normalized
- number of slips [7]: normalized
- time needed to cross the bar [7]: normalized
- body weight ([8]; continuous administration during 3 months, intraperitoneal, data not shown): important weight losses
- body weight [8, 13]: without significant weight loss
- locomotor performances [8, 13]: better
- chymotrypsin-like proteasome activity ([9]; Abcd1−/− mouse spinal cord lysates): normalized
- ATP levels ([9]; Abcd1−/− mouse spinal cord): normalizing
- levels of oxidized proteins ([9]; Abcd1−/− mouse spinal cord): reduced considerably
- induction of immunoproteasome subunit β1i/LMP2 [9, 14]: prevented the induction
- induction of immunoproteasome subunit β5i/LMP7 [9, 14]: prevented the induction
- immunoreactivity for total p70S6K [10]: did not change
- phosphorylated p70S6K [10]: decrease
